Measured values: patent US7763728B2, “Tetrahydropyridothiophenes” (4SC AG, priority 2005, dated 2010)

What was measured:
[1] = system: RKO (RKOp27) human colon adenocarcinoma cells; test: Alamar Blue cell viability assay, anti-proliferative/cytotoxic activity on proliferating (uninduced) RKOp27 cells; type: cell-based; conditions: 72 hours incubation, absence of the inducer Ponasterone A, read-out: IC50 RKO p27 uninduced (proliferating)
Procedure, shortened: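 RKOp27 subclones seeded at 5000 cells/well, compounds added after 24 h in DMEM/10% FCS, quadruplicates, 72 h at 37 °C, 5% CO2. Alamar Blue fluorescence (ex 544/em 590 nm) normalised to untreated cells (1% DMSO medium) as 100%; IC50 from concentration-effect curves.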

[2] = system: RKO colon adenocarcinoma cells (RKOp27) arrested by the expression of ectopic p27Kip1; test: Alamar Blue cell viability assay on RKOp27 cells arrested by p27Kip1 expression induced by Ponasterone A; type: cell-based; conditions: Homo sapiens, 72 hours incubation, 10 μM Ponasterone A, read-out: IC50 RKO p27 induced (arrested)
Procedure, shortened: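 RKOp27 cells, 15000/well, held in DMEM with 10% FCS and with or without 10 μM Ponasterone A to induce p27Kip1 arrest. Compound dilutions added 24 h after seeding, then 72 h at 37 °C in quadruplicate. Alamar Blue fluorescence (544/590 nm) gave % viability relative to untreated cells.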

CCCC(=O)N1CCc2c(sc(NC(=O)CCc3cc(C)ccc3OC)c2C#N)C1 [Example 35, N-(6-Butyryl-3-cyano-4,5,6,7-tetrahydro-thieno[2,3-c]pyridin-2-yl)-3-(2-methoxy-5-methyl-phenyl)-propionamide]
IC50 [1]: ≤ 300 nM
IC50 [2]: > 100000 nM

COc1ccc(OC)c(CCC(=O)Nc2sc3c(c2C#N)CCN(C(=O)Cc2cccnc2)C3)c1 [Example 36, N-[3-Cyano-6-(2-pyridin-3-yl-ethanoyl)-4,5,6,7-tetrahydro-thieno[2,3-c]pyridin-2-yl]-3-(2,5-dimethoxy-phenyl)-propionamide]
IC50 [1]: 300 to 2000 nM
IC50 [2]: > 100000 nM

COc1ccc(C)cc1CCC(=O)Nc1sc2c(c1C#N)CCN(C(=O)Cc1cccnc1)C2 [Example 37, N-[3-Cyano-6-(2-pyridin-3-yl-ethanoyl)-4,5,6,7-tetrahydro-thieno[2,3-c]pyridin-2-yl]-3-(2-methoxy-5-methyl-phenyl)-propionamide]
IC50 [1]: ≤ 300 nM
IC50 [2]: > 100000 nM

COc1ccc(C)cc1CCC(=O)Nc1sc2c(c1C#N)CCN(C(=O)CCc1ccncn1)C2 [Example 38, N-[3-Cyano-6-(3-pyrimidin-4-yl-propanoyl)-4,5,6,7-tetrahydro-thieno[2,3-c]pyridin-2-yl]-3-(2-methoxy-5-methyl-phenyl)-propionamide]
IC50 [1]: 300 to 2000 nM
IC50 [2]: > 100000 nM

COc1cccc(CCC(=O)Nc2sc3c(c2C#N)CCN(C(=O)Cc2cccnc2)C3)c1 [Example 39, N-[3-Cyano-6-(2-pyridin-3-yl-ethanoyl)-4,5,6,7-tetrahydro-thieno[2,3-c]pyridin-2-yl]-3-(3-methoxy-phenyl)-propionamide]
IC50 [1]: ≤ 300 nM
IC50 [2]: ≥ 40000 nM

COc1ccc(C)cc1CCC(=O)Nc1sc2c(c1C#N)CCN(C(=O)CCn1ccnc1)C2 [Example 40, N-[3-Cyano-6-(3-imidazol-1-yl-propanoyl)-4,5,6,7-tetrahydro-thieno[2,3-c]pyridin-2-yl]-3-(2-methoxy-5-methyl-phenyl)-propionamide]
IC50 [1]: 300 to 2000 nM
IC50 [2]: ≥ 40000 nM

COc1ccc(C)cc1CCC(=O)Nc1sc2c(c1C#N)CCN(C(=O)CCc1cnccc1OC)C2 [Example 41, N-{3-Cyano-6-[3-(4-methoxy-pyridin-3-yl)-propanoyl]-4,5,6,7-tetrahydro-thieno[2,3-c]pyridin-2-yl}-3-(2-methoxy-5-methyl-phenyl)-propionamide]
IC50 [1]: 300 to 2000 nM
IC50 [2]: ≥ 40000 nM

COc1cccc(CCC(=O)Nc2sc3c(c2C#N)CCN(C(=O)Cn2ccnc2)C3)c1 [Example 55, N-[3-Cyano-6-(2-imidazol-1-yl-ethanoyl)-4,5,6,7-tetrahydro-thieno[2,3-c]pyridin-2-yl]-3-(3-methoxy-phenyl)-propionamide]
IC50 [1]: 300 to 2000 nM
IC50 [2]: ≥ 40000 nM

COc1cccc(C(C)CC(=O)Nc2sc3c(c2C#N)CCN(C(=O)Cc2ccccn2)C3)c1 (centres unmarked) [Example 58, N-[3-Cyano-6-(2-pyridin-2-yl-ethanoyl)-4,5,6,7-tetrahydro-thieno[2,3-c]pyridin-2-yl]-3-(3-methoxy-phenyl)-butyramide]
IC50 [1]: 300 to 2000 nM
IC50 [2]: > 100000 nM

COc1ccccc1CCC(=O)Nc1sc2c(c1C#N)CCN(C(=O)Cc1ccccn1)C2 [Example 59, N-[3-Cyano-6-(2-pyridin-2-yl-ethanoyl)-4,5,6,7-tetrahydro-thieno[2,3-c]pyridin-2-yl]-3-(2-methoxy-phenyl)-propionamide]
IC50 [1]: ≤ 300 nM
IC50 [2]: ≥ 40000 nM

COc1ccc(C)cc1CCC(=O)Nc1sc2c(c1C#N)CCN(C(=O)Cc1ccccn1)C2 [Example 60, N-[3-Cyano-6-(2-pyridin-2-yl-ethanoyl)-4,5,6,7-tetrahydro-thieno[2,3-c]pyridin-2-yl]-3-(2-methoxy-5-methyl-phenyl)-propionamide]
IC50 [1]: ≤ 300 nM
IC50 [2]: > 100000 nM

COc1cccc(CCC(=O)Nc2sc3c(c2C#N)CCN(C(=O)Cc2ccncc2)C3)c1 [Example 72, N-[3-Cyano-6-(2-pyridin-4-yl-ethanoyl)-4,5,6,7-tetrahydro-thieno[2,3-c]pyridin-2-yl]-3-(3-methoxy-phenyl)-propionamide]
IC50 [1]: ≤ 300 nM
IC50 [2]: > 100000 nM

CCOc1ccccc1CCC(=O)Nc1sc2c(c1C#N)CCN(C(=O)Cc1ccncc1)C2 [Example 73, N-[3-Cyano-6-(2-pyridin-4-yl-ethanoyl)-4,5,6,7-tetrahydro-thieno[2,3-c]pyridin-2-yl]-3-(2-ethoxy-phenyl)-propionamide]
IC50 [1]: ≤ 300 nM
IC50 [2]: ≥ 40000 nM

COc1ccc(C)cc1CCC(=O)Nc1sc2c(c1C#N)CCN(C(=O)Cc1ccncc1)C2 [Example 74, N-[3-Cyano-6-(2-pyridin-4-yl-ethanoyl)-4,5,6,7-tetrahydro-thieno[2,3-c]pyridin-2-yl]-3-(2-methoxy-5-methyl-phenyl)-propionamide]
IC50 [1]: ≤ 300 nM
IC50 [2]: > 100000 nM

COc1ccccc1CCC(=O)Nc1sc2c(c1C#N)CCN(C(=O)Cn1ccnc1)C2 [Example 84, N-[3-Cyano-6-(2-imidazol-1-yl-ethanoyl)-4,5,6,7-tetrahydro-thieno[2,3-c]pyridin-2-yl]-3-(2-methoxy-phenyl)-propionamide]
IC50 [1]: ≤ 300 nM
IC50 [2]: ≥ 40000 nM

CCOc1ccccc1CCC(=O)Nc1sc2c(c1C#N)CCN(C(=O)Cn1ccnc1)C2 [Example 85, N-[3-Cyano-6-(2-imidazol-1-yl-ethanoyl)-4,5,6,7-tetrahydro-thieno[2,3-c]pyridin-2-yl]-3-(2-ethoxy-phenyl)-propionamide]
IC50 [1]: ≤ 300 nM
IC50 [2]: ≥ 40000 nM

COc1ccc(C)cc1CCC(=O)Nc1sc2c(c1C#N)CCN(C(=O)Cn1ccnc1)C2 [Example 86, N-[3-Cyano-6-(2-imidazol-1-yl-ethanoyl)-4,5,6,7-tetrahydro-thieno[2,3-c]pyridin-2-yl]-3-(2-methoxy-5-methyl-phenyl)-propionamide]
IC50 [1]: 300 to 2000 nM
IC50 [2]: ≥ 40000 nM

CCCC(=O)N1CCc2c(sc(NC(=O)CCc3ccccc3OC)c2C#N)C1 [Example 91, N-(6-Butyryl-3-cyano-4,5,6,7-tetrahydro-thieno[2,3-c]pyridin-2-yl)-3-(2-methoxy-phenyl)-propionamide]
IC50 [1]: ≤ 300 nM
IC50 [2]: > 100000 nM

COc1ccccc1CCC(=O)Nc1sc2c(c1C#N)CCN(C(=O)CCc1ccccn1)C2 [Example 95, N-[3-Cyano-6-(3-pyridin-2-yl-propanoyl)-4,5,6,7-tetrahydro-thieno[2,3-c]pyridin-2-yl]-3-(2-methoxy-phenyl)-propionamide]
IC50 [1]: ≤ 300 nM
IC50 [2]: > 100000 nM

COc1ccc(C)cc1CCC(=O)Nc1sc2c(c1C#N)CCN(C(=O)CCc1ccccn1)C2 [Example 96, N-[3-Cyano-6-(3-pyridin-2-yl-propanoyl)-4,5,6,7-tetrahydro-thieno[2,3-c]pyridin-2-yl]-3-(2-methoxy-5-methyl-phenyl)-propionamide]
IC50 [1]: 300 to 2000 nM
IC50 [2]: > 100000 nM

COc1ccccc1CCC(=O)Nc1sc2c(c1C#N)CCN(C(=O)CCn1ccnc1)C2 [Example 101, N-[3-Cyano-6-(3-imidazol-1-yl-propanoyl)-4,5,6,7-tetrahydro-thieno[2,3-c]pyridin-2-yl]-3-(2-methoxy-phenyl)-propionamide]
IC50 [1]: ≤ 300 nM
IC50 [2]: ≥ 40000 nM

CCOc1ccccc1CCC(=O)Nc1sc2c(c1C#N)CCN(C(=O)CCn1ccnc1)C2 [Example 102, N-[3-Cyano-6-(3-Imidazol-1-yl-propanoyl)-4,5,6,7-tetrahydro-thieno[2,3-c]pyridin-2-yl]-3-(2-ethoxy-phenyl)-propionamide]
IC50 [1]: ≤ 300 nM
IC50 [2]: ≥ 10000 nM

COc1ccccc1CCC(=O)Nc1sc2c(c1C#N)CCN(C(=O)CCn1ccnc1C)C2 [Example 108, N-{3Cyano-6-[3-(2-methyl-imidazol-1-yl)-propanoyl]-4,5,6,7-tetrahydro-thieno[2,3-c]pyridin-2-yl}-3-(2-methoxy-phenyl)-propionamide]
IC50 [1]: 300 to 2000 nM
IC50 [2]: ≥ 10000 nM

CCOc1ccccc1CCC(=O)Nc1sc2c(c1C#N)CCN(C(=O)CCn1ccnc1C)C2 [Example 109, N-{3-Cyano-6-[3-(2-methyl-imidazol-1-yl)-propanoyl]-4,5,6,7-tetrahydro-thieno[2,3-c]pyridin-2-yl}-3-(2-ethoxy-phenyl)-propionamide]
IC50 [1]: ≤ 300 nM
IC50 [2]: ≥ 10000 nM

COc1ccc(C)cc1CCC(=O)Nc1sc2c(c1C#N)CCN(C(=O)CCn1ccnc1C)C2 [Example 110, N-{3-Cyano-6-[3-(2-methyl-imidazol-1-yl)-propanoyl]-4,5,6,7-tetrahydro-thieno[2,3-c]pyridin-2-yl}-3-(2-methoxy-5-methyl-phenyl)-propionamide]
IC50 [1]: 300 to 2000 nM
IC50 [2]: ≥ 10000 nM

COc1cccc(CCC(=O)Nc2sc3c(c2C#N)CCN(C(=O)CCc2nccn2C)C3)c1 [Example 115, N-{3-Cyano-6-[3-(1-methyl-1H-imidazol-2-yl)-propanoyl]-4,5,6,7-tetrahydro-thieno[2,3-c]pyridin-2-yl}-3-(3-methoxy-phenyl)-propionamide]
IC50 [1]: 300 to 2000 nM
IC50 [2]: ≥ 40000 nM

COc1ccccc1CCC(=O)Nc1sc2c(c1C#N)CCN(C(=O)CCc1nccn1C)C2 [Example 116, N-{3-Cyano-6-[3-(1-methyl-1H-imidazol-2-yl)-propanoyl]-4,5,6,7-tetrahydro-thieno[2,3-c]pyridin-2-yl}-3-(2-methoxy-phenyl)-propionamide]
IC50 [1]: ≤ 300 nM
IC50 [2]: ≥ 10000 nM

CCOc1ccccc1CCC(=O)Nc1sc2c(c1C#N)CCN(C(=O)CCc1nccn1C)C2 [Example 117, N-{3-Cyano-6-[3-(1-methyl-1H-imidazol-2-yl)-propanoyl]-4,5,6,7-tetrahydro-thieno[2,3-c]pyridin-2-yl}-3-(2-ethoxy-phenyl)-propionamide]
IC50 [1]: ≤ 300 nM
IC50 [2]: ≥ 10000 nM
